Measurements from patent US20080103151A9, “Heterocyclic compounds and their uses as therapeutic agents” (Xenon Pharmaceuticals Inc., priority 2005, published 2008).

Legend:
[1] = Stability of the isolated solid in the air; type: physicochemical; conditions: white solid, turned to red in the air
Protocol: A mixture of 3-hydroxy-3-(6-hydroxy-1,3-benzodioxol-5-yl)-1-pentyl-1,3-dihydro-2H-pyrrolo[3,2-c]pyridin-2-one (0.15 g, 0.42 mmol), triethylsilane (1.60 mL, 10.0 mmol) and trifluroacetic acid (0.74 mL, 10.0 mmol) was stirred at ambient temperature overnight. The mixture was diluted with ethyl acetate (100 mL), washed with water, dried over anhydrous sodium sulfate and filtered. The filtrate was concentrated in vacuo. The residue was triturated with diethyl ether to give the title compound as a white solid (not stable, turned to red in the air): MS (ES+) m/z 341.4 (M+1).

[2] = tested on: Nav1.4 and 1.5 (L6 rat myoblast cell); type: cell-based
[3] = target: Nav1.4 (CHO-K1 cells) (Cricetulus griseus, UniProt A0A9J7H6F9); type: cell-based, Chinese Hamster
Sequence of Nav1.4 (CHO-K1 cells) (A0A9J7H6F9 1-1930): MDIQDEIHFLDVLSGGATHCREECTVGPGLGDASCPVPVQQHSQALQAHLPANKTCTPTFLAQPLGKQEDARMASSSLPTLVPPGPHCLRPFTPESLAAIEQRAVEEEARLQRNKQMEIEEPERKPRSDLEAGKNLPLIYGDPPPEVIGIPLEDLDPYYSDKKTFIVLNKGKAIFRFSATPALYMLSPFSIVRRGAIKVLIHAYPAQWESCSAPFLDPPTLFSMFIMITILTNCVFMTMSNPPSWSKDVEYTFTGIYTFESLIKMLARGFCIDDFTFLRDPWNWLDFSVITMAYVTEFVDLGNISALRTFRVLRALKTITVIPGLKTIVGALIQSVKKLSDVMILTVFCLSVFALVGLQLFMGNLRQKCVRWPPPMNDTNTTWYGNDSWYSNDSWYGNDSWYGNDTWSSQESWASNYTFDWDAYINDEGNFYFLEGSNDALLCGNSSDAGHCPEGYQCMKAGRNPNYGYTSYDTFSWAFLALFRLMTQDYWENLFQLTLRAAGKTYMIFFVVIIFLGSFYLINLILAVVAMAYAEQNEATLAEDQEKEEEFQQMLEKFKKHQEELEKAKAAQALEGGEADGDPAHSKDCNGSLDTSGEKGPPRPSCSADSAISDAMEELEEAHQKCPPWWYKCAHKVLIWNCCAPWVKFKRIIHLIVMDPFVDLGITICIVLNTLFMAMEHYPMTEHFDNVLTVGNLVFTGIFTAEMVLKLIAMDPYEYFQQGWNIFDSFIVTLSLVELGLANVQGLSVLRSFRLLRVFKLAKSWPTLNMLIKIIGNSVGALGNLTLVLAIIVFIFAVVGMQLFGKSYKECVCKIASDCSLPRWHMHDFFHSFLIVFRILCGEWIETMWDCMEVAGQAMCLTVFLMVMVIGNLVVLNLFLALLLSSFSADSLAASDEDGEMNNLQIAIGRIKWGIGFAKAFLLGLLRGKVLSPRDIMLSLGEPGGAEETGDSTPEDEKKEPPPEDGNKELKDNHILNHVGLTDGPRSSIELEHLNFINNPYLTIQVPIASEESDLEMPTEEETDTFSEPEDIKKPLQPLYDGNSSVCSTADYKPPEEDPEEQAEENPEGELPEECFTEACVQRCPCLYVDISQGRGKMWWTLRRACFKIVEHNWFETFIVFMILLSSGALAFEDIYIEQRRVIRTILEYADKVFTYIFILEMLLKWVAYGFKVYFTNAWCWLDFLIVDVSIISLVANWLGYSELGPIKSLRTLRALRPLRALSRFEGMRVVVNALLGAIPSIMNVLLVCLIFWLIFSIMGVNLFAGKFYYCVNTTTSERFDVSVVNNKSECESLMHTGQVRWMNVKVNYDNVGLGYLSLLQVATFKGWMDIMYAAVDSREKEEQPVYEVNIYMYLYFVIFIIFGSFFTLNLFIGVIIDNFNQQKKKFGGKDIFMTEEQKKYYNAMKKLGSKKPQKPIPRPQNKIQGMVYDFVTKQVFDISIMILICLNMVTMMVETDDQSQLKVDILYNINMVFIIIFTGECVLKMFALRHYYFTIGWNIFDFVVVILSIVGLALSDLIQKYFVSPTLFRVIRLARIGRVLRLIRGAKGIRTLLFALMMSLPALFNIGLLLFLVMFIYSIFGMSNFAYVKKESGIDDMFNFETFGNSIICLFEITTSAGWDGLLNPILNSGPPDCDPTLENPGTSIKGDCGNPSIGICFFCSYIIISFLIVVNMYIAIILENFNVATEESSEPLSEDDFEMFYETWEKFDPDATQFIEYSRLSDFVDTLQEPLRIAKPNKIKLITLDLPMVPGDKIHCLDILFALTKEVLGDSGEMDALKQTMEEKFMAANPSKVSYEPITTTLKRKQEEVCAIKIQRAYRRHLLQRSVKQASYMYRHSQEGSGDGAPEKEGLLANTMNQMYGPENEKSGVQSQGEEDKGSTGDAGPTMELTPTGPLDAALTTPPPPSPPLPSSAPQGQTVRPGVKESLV

[4] = target: NaV1.8 (SK-N-BE2C neuroblastoma cell line) (Homo sapiens, UniProt Q9Y5Y9); type: cell-based
Sequence of NaV1.8 (SK-N-BE2C neuroblastoma cell line) (Q9Y5Y9 whole entry, looked up): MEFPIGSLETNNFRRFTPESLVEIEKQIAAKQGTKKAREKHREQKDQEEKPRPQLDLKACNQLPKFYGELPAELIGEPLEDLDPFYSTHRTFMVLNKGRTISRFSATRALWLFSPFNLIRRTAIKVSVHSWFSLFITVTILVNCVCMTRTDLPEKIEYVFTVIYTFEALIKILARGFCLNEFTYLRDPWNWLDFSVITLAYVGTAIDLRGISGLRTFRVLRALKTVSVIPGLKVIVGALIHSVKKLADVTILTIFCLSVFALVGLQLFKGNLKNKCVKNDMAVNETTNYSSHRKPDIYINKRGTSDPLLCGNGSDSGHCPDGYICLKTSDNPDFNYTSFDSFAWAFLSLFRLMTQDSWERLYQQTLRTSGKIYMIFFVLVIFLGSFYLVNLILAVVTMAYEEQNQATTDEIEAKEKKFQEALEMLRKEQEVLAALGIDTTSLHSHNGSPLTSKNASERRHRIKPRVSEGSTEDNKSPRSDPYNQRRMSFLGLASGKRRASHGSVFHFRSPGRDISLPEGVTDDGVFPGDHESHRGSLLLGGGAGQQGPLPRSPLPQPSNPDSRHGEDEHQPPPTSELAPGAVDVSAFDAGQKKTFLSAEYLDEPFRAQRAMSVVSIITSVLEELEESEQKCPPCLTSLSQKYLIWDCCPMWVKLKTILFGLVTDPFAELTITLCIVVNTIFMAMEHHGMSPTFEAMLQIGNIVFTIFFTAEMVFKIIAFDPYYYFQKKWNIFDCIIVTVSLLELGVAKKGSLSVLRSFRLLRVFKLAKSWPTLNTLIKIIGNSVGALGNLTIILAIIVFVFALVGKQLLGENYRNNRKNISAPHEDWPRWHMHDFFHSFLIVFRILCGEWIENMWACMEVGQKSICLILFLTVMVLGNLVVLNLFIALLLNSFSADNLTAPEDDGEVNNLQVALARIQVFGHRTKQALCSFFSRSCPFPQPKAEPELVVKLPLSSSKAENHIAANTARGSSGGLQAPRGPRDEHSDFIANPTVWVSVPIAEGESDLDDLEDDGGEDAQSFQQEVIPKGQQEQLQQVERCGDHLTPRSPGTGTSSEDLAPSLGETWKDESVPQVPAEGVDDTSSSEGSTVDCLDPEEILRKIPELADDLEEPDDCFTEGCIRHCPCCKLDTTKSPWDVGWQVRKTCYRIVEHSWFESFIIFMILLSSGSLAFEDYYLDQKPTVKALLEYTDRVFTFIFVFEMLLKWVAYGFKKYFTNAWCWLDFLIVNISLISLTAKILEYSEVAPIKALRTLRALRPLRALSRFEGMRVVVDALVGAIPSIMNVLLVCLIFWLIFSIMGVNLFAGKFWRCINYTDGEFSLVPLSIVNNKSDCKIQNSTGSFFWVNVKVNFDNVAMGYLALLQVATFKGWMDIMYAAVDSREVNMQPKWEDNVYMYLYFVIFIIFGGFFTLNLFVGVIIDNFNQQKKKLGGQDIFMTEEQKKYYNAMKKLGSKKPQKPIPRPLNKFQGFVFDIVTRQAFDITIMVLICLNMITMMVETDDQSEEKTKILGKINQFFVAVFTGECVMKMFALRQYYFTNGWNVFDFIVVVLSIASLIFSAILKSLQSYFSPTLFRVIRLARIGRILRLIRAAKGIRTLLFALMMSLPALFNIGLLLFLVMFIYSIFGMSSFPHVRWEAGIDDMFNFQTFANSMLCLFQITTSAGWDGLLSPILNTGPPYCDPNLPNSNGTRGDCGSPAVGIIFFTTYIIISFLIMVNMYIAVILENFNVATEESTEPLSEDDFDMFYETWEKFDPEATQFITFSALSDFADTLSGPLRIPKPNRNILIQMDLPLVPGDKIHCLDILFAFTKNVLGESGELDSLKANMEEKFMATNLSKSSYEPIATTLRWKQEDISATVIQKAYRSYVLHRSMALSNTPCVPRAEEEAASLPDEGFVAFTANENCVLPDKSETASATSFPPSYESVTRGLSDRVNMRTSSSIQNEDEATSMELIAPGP

[5] = target: Nav1.2 (PC12 pheochromocytoma) (Rattus norvegicus, UniProt P04775)

CCCCCN1C(=O)C(c2ccc3c(c2)OCO3)c2cccnc21 (centres unmarked) [Example 17, 3-(1,3-benzodioxol-5-yl)-1-pentyl-1,3-dihydro-2H-pyrrolo[2,3-b]pyridin-2-one]
melting point: 75 to 77 °C

CCCCCN1C(=O)C(O)(c2ccc3c(c2)OCO3)c2cccnc21 (centres unmarked)
melting point: 104 to 105 °C

CCCCCN1C(=O)C(O)(c2cc3c(cc2O)OCO3)c2cnccc21 (centres unmarked)
melting point: 193 to 195 °C

CCCCCN1C(=O)C(c2cc3c(cc2O)OCO3)c2cnccc21 (centres unmarked) [Example 10, 3-(6-hydroxy-1,3-benzodioxol-5-yl)-1-pentyl-1,3-dihydro-2H-pyrrolo[3,2-c]pyridin-2-one]
stability of the solid in the air [1]: not stable

NC1=N[C@H](O)[C@H]2[C@H]3O[C@]4(O)O[C@@H]([C@@H](O)[C@@]2(N1)[C@@H]4O)[C@]3(O)CO [TTX, tetrodotoxin]
block of [^14C] Guanidine influx by TTX [2]: partially blocked by TTX (Nav1.5
block of [^14C] Guanidine influx by TTX [3]: Guanidine influx was completely
block of [^14C] Guanidine influx by TTX [4]: TTX partially blocked influx
block of [^14C] Guanidine influx by TTX [5]: Guanidine influx was completely
